What all share (type): cell-based
Data set [1] deals with T1, NTCP (Homo sapiens, UniProt Q14973).
T1 construct: expressed in transfected cells; host or cells: HEK-293T
T1 sequence (Q14973 1-349): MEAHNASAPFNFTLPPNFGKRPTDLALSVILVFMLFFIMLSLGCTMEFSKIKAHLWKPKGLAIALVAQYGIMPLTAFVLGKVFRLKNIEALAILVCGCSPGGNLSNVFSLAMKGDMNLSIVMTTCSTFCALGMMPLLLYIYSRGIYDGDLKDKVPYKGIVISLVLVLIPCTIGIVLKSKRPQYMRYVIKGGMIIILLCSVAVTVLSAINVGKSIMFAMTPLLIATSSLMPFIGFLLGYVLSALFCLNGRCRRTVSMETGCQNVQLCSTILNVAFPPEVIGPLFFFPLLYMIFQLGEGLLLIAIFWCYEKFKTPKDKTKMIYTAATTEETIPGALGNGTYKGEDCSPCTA
The data set is described as follows: Uptake of DY-635 into transporter-transfected HEK-293T cells. The conditions noted are these: 10 μmol/L, 5 minutes. As for the experimental part:
(§1) HEK-293T cells were transfected with human tissue-specific hepatocytic transporters. Then the uptake of the polymethine dye DY-635 as a targeting unit into these tissue-specific transporters was investigated for FIG. 10 A. To do so, the cells were sown onto 96 well plates, incubated for 24 hours under standard conditions, then incubated 5 minutes with DY-635 (final concentration in the well: 10 μmol/L) after changing the medium. Next the cells were lysed and the lysates were measured by fluorimetry. […] The uptake by OCT1 can be evaluated as negligible. In FIG. 10 B the question of whether DY-635 binds as an inhibitor to the basolateral hepatocytic transporters was investigated. For this purpose, the HEK-293T cells transfected with the tissue-specific transporters were sown and incubated as described above. After 24 hours the cells were incubated for 5 minutes with either a radioactively labeled transporter-specific substrate or with the radioactive-specific substrate with a specific inhibitor or with DY-635 (10 μmol/L final concentration) (the substrates and their concentrations are shown in Table 3 below). The cells were then washed and lysed in the well. To quantify the uptake, the radioactive radiation of the substrates was used. […] This illustrates the strong interaction of DY-635 with the tissue-specific hepatocytic transporters. […]

For data set [2], the target named is T2, OCT1 (Homo sapiens, UniProt O15245).
T2 construct: expressed in transfected cells; host or cells: HEK-293T
T2 sequence (O15245 1-554): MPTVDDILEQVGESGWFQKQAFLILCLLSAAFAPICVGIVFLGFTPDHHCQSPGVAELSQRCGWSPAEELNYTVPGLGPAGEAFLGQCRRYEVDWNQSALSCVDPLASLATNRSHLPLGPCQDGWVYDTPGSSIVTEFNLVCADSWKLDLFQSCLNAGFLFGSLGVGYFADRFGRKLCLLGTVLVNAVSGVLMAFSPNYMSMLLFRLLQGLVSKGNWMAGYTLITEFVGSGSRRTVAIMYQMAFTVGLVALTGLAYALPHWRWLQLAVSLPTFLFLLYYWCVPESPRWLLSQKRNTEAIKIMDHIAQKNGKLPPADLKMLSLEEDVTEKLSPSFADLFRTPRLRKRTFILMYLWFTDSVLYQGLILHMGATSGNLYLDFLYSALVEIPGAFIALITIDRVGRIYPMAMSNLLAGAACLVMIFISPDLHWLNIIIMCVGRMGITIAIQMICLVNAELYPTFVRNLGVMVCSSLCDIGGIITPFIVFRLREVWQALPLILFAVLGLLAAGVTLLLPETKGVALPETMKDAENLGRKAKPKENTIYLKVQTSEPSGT
The description is as above. The following applies: 10 μmol/L, 5 minutes. As for the experimental part:
as §1

Data set [3] concerns the target T3, OAT2 (Homo sapiens, UniProt Q9Y694).
T3 construct: expressed in transfected cells; host or cells: HEK-293T
T3 sequence (Q9Y694 1-548): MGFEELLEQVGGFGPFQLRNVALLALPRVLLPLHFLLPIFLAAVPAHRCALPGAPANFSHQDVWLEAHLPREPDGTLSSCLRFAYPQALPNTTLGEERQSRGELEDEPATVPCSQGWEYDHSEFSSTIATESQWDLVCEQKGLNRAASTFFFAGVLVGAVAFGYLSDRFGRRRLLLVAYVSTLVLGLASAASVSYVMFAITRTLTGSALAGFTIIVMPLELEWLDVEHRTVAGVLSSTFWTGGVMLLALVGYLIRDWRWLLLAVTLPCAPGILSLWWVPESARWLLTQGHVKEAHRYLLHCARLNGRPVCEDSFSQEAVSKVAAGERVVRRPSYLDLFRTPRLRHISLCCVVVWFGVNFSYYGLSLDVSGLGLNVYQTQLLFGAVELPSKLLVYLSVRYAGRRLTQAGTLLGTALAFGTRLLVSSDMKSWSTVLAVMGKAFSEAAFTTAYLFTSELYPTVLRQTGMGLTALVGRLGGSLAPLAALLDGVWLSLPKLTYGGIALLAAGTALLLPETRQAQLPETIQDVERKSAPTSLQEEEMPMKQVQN
Description: Inhibition of radioactively labeled substrate uptake in transfected HEK-293T cells. The conditions noted are these: 10 μmol/L, 5 minutes; [3H]cGMP 10 nM. As for the experimental part: (§2) HEK-293T cells were transfected with human tissue-specific hepatocytic transporters. Then the uptake of the polymethine dye DY-635 as a targeting unit into these tissue-specific transporters was investigated for FIG. 10 A. To do so, the cells were sown onto 96 well plates, incubated for 24 hours under standard conditions, then incubated 5 minutes with DY-635 (final concentration in the well: 10 μmol/L) after changing the medium. Next the cells were lysed and the lysates were measured by fluorimetry. […] The uptake by OCT1 can be evaluated as negligible. In FIG. 10 B the question of whether DY-635 binds as an inhibitor to the basolateral hepatocytic transporters was investigated. For this purpose, the HEK-293T cells transfected with the tissue-specific transporters were sown and incubated as described above. After 24 hours the cells were incubated for 5 minutes with either a radioactively labeled transporter-specific substrate or with the radioactive-specific substrate with a specific inhibitor or with DY-635 (10 μmol/L final concentration) (the substrates and their concentrations are shown in Table 3 below). The cells were then washed and lysed in the well. To quantify the uptake, the radioactive radiation of the substrates was used. […] This illustrates the strong interaction of DY-635 with the tissue-specific hepatocytic transporters. It can be concluded that by exposure of DY-635 to the surface of a nanostructured transporter system, immobilization on the cell surface of the hepatocyte occurs, resulting in subsequent endocytosis of the nanoparticle.

Data set [4] has as its target T4, OATP1B1 (Homo sapiens, UniProt Q9Y6L6).
T4 construct: expressed in transfected cells; host or cells: HEK-293T
T4 sequence (Q9Y6L6 1-691): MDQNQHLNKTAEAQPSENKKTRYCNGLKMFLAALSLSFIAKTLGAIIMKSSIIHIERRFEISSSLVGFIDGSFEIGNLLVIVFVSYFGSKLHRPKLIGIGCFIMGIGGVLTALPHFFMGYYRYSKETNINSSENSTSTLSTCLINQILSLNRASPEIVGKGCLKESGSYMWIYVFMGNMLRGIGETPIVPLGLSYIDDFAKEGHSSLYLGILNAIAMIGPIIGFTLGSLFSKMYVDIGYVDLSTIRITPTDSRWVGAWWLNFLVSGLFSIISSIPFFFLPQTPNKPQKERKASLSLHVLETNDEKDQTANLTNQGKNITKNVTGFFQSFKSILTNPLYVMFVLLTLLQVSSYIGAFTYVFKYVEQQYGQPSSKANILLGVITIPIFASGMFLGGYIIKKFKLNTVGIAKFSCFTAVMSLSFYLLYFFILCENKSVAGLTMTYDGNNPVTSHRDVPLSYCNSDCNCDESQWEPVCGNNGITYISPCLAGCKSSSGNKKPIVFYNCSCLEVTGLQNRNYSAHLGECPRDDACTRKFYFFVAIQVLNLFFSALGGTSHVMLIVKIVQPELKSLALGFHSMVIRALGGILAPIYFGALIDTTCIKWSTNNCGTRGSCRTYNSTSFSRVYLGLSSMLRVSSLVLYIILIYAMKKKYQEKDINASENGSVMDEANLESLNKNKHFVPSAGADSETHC
The data set is described as above. The conditions noted are these: 10 μmol/L, 5 minutes; [3H]Estradiol 30 nM. As for the experimental part:
as §2

Data set [5] addresses T5, OATP1B3 (Homo sapiens, UniProt Q9NPD5).
T5 construct: expressed in transfected cells; host or cells: HEK-293T
T5 sequence (Q9NPD5 1-702): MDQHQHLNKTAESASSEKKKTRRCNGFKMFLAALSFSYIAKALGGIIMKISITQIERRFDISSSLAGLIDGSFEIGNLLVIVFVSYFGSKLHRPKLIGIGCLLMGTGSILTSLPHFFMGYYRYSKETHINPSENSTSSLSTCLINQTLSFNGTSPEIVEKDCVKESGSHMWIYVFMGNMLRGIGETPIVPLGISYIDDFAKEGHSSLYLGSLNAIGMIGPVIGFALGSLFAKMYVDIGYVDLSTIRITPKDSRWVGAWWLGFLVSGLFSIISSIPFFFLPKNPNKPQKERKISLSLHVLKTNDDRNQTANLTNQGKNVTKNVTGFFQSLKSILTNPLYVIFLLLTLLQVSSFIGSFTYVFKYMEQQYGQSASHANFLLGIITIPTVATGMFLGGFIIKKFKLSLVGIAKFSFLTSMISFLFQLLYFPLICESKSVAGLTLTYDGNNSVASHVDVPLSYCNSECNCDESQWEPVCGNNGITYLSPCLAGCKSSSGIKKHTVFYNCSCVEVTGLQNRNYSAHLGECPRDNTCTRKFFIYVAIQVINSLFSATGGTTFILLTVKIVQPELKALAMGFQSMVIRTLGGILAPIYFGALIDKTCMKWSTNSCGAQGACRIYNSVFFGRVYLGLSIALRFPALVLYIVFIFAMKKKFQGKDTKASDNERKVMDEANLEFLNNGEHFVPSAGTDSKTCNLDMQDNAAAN
The description is as above. The following applies: 10 μmol/L, 5 minutes; [3H]Sulfobromophthalein. As for the experimental part: as §2

For data set [6], the target named is T2, OCT1. The data set is described as above. The conditions noted are these: 10 μmol/L, 5 minutes; [3H]1-Methyl-4-phenylpyridinium. As for the experimental part: as §2

As for `CC(C)(C)C1=CC(=CC=CC2=[N+](CCCCCC(=O)O)c3ccc(S(=O)(=O)[O-])cc3C2(C)C)c2cc3c4c(c2O1)CCCN4CCC3` [DY-635], the “uptake of DY-635 by NTCP” value in data set [1] is listed as “substrate for NTCP”. Moreover, the “uptake of DY-635 by OCT1” value in data set [2] is “negligible”. Further, the “inhibition of OAT2” value in data set [3] is “inhibited”. In data set [4], the “inhibition of OATP1B1” value is reported as “strong indicator”. For the same compound, the “inhibition of OATP1B3” value in data set [5] is “strong indicator”. In addition, the “inhibition of OCT1” value in data set [6] was “inhibited”.

These data come from US9795688B2, “Cell-specific targeting using nanostructured delivery systems” (SmartDyeLivery GmbH, priority 2013, dated 2017).
